Source: patent US11976280B2, “SMAC/Diablo inhibitors useful for treating cancer” (THE NATIONAL INSTITUTE FOR BIOTECHNOLOGY IN THE NEGEV LTD., priority 2017, dated 2024)
d = 2'-deoxy (DNA); r = 2'-OH (RNA)

Tested on: A549 cells-derived tumors
Experiment: Next-generation sequencing (NGS) of si-NT- and si-hSMAC-A-treated tumors
Format: in vivo, human
Experimental: Libraries were prepared by the INCPM-RNA-seq unit (Weizmann Institute, Israel). Briefly, polyA fraction (mRNA) was purified from 500 ng of total RNA, isolated as above, followed by fragmentation and generation of double stranded cDNA. End repair, a base addition, adapter ligation and PCR amplification steps were performed according to established methods. Libraries were evaluated by Qubit and TapeStation. Sequencing libraries were constructed with barcodes to allow multiplexing of 20 samples in one lane. Between 22 and 26 million reads single-end 60-bp reads were sequenced per sample on Illumina HiSeq 2500 V4 instrument.
Bioinformatics analyses were carried out at the Bioinformatics Core Facility at the National Institute for Biotechnology in the Negev, Ben-Gurion University. Raw sequence reads were assessed for quality using FASTQC and further trimmed for removal of remaining adaptors and low quality bases using Trimmomatic. The trimmed reads from each sample were separately aligned to the human and mouse genomes (GRCh38 and GRCm38.75, respectively) using STAR v2.3.0 with default settings. An average of 23.7±0.8 million reads per sample was obtained. Of these, an average of 13, 2.6, 7.8 and 0.3 million reads were mapped to human only, mouse only, both human and mouse, and none of them, respectively. After rejection of multi-mapped reads, a total of 11.5±2.5 human-specific, uniquely mapped reads, and 2.3±1.7 mouse-specific, uniquely mapped reads were subjected for further analysis. The number of aligned reads per gene per sample were counted using HTSeq count with “intersection-nonempty” (to handle reads that overlap with more than one gene) and “no stranded” as parameters. The other parameters were set to their default. Normalization and statistical analysis for differential expression were carried out using DESeq2 v1.6.3. Fold change values were converted to linear scale, with a minus sign indicating down-regulation.
Differentially expressed genes were defined as those having a p-value<0.05, and linear fold change>1.5 and <−1.5. Functional analysis was performed using the Gene Ontology system, DAVID and Expander software tools.
NGS was used to investigate changes in patterns of gene expression in si-NT-TTs and si-hSMAC-A-TTs (FIG. 10, and Tables 3-5). […] As si-hSMAC is human-specific, any effect on mouse gene expression must be mediated by the human tumor cells.
The major functional groups were changes were seen are presented below.

[1] = vs si-NT-TTs, ENDOPLASMIC AND GOLGI LUMENS
[2] = vs si-NT-TTs, ENDOPLASMIC AND GOLGI LUMENS / METABOLISM RELATED ENZYMES
[3] = vs si-NT-TTs, ER AND MITOCHONDRIA
[4] = vs si-NT-TTs, EXTRACELLULAR MATRIX

For “si-hSMAC-A: siRNA to human SMAC/Diablo; sense 5′AAGCGGUGUUUCUCAGAAUUGtt3′ (SEQ ID NO:20), antisense 5′AACAAUUCUGAGAAACCCGCtt3′ (SEQ ID NO:21) (sense AAGCGGUGUUUCUCAGAAUUGTT; antisense AACAAUUCUGAGAAACCCGCTT; sense: sugars from the 5' end r21 d2, backbone not given here; antisense: sugars from the 5' end r20 d2, backbone not given here)”, the “Fold change, ACKR3-atypical chemokine receptor 3 gene expression” value (NGS, si-hSMAC-A- vs si-NT-treated A549 cells-derived tumors, gene ACKR3) was −2.2, the “Fold change, C5-complement component 5 gene expression” value (NGS, si-hSMAC-A- vs si-NT-treated A549 cells-derived tumors, gene C5) was −1.7 and the “Fold change, C5AR1 (CD88)-complement component 5a receptor 1 gene expression” value (NGS, si-hSMAC-A- vs si-NT-treated A549 cells-derived tumors, gene C5AR1) was −1.7. The “Fold change, CCL24-chemokine (C-C motif) ligand 24 gene expression” value (NGS, si-hSMAC-A- vs si-NT-treated A549 cells-derived tumors, gene CCL24) was 1.9, the “Fold change, CCL28-chemokine (C-C motif) ligand 28 gene expression” value (NGS, si-hSMAC-A- vs si-NT-treated A549 cells-derived tumors, gene CCL28) was 1.9 and the “Fold change, CD274-(PD-L1) molecule gene expression” value (NGS, si-hSMAC-A- vs si-NT-treated A549 cells-derived tumors, gene CD274) was −1.9. For the same substance, the “Fold change, CREB3L3-CAMP responsive element binding protein 3-like 3 gene expression” value (NGS, si-hSMAC-A- vs si-NT-treated A549 cells-derived tumors, gene CREB3L3) was 2.0, the “Fold change, CX3CL1-chemokine (C-X3-C motif) ligand 1 gene expression” value (NGS, si-hSMAC-A- vs si-NT-treated A549 cells-derived tumors, gene CX3CL1) was 1.6 and the “Fold change, GAS6-growth arrest-specific 6 gene expression” value (NGS, si-hSMAC-A- vs si-NT-treated A549 cells-derived tumors, gene GAS6) was −1.7. The “Fold change, IL1R1-interleukin 1 receptor, type I gene expression” value (NGS, si-hSMAC-A- vs si-NT-treated A549 cells-derived tumors, gene IL1R1) was −1.6, the “Fold change, IL6-interleukin 6 gene expression” value (NGS, si-hSMAC-A- vs si-NT-treated A549 cells-derived tumors, gene IL6) was −2.5 and the “Fold change, IL18BP-interleukin 18 binding protein gene expression” value (NGS, si-hSMAC-A- vs si-NT-treated A549 cells-derived tumors, gene IL18BP) was −1.6. For the same substance, the “Fold change, IL27RA-interleukin 27 receptor, alpha gene expression” value (NGS, si-hSMAC-A- vs si-NT-treated A549 cells-derived tumors, gene IL27RA) was −1.6, the “Fold change, IRF6-interferon regulatory factor 6 gene expression” value (NGS, si-hSMAC-A- vs si-NT-treated A549 cells-derived tumors, gene IRF6) was 1.6 and the “Fold change, LBP-lipopolysaccharide binding protein gene expression” value (NGS, si-hSMAC-A- vs si-NT-treated A549 cells-derived tumors, gene LBP) was −2.1. The “Fold change, MRC2 (ENDO180)-mannose receptor, C type 2 gene expression” value (NGS, si-hSMAC-A- vs si-NT-treated A549 cells-derived tumors, gene MRC2) was −1.7, the “Fold change, OSMR-oncostatin M receptor gene expression” value (NGS, si-hSMAC-A- vs si-NT-treated A549 cells-derived tumors, gene OSMR) was −1.7 and the “Fold change, PROC-protein C gene expression” value (NGS, si-hSMAC-A- vs si-NT-treated A549 cells-derived tumors, gene PROC) was 1.8. For the same substance, the “Fold change, PTGS2 (Cox-2)-prostaglandin-endoperoxide synthase 2 gene expression” value (NGS, si-hSMAC-A- vs si-NT-treated A549 cells-derived tumors, gene PTGS2) was −1.8, the “Fold change, TLR3-toll-like receptor 3 gene expression” value (NGS, si-hSMAC-A- vs si-NT-treated A549 cells-derived tumors, gene TLR3) was −1.7 and the “Fold change, TNFAIP6 (TSG6) gene expression” value (NGS, si-hSMAC-A- vs si-NT-treated A549 cells-derived tumors, gene TNFAIP6) was −1.6. The “Fold change, TNFSF14 (LIGHT) gene expression” value (NGS, si-hSMAC-A- vs si-NT-treated A549 cells-derived tumors, gene TNFSF14) was −1.8, the “expression of genes associated with inflammation and the tumor microenvironment” value (in vivo) was “reduction” and the “number of human genes down-regulated” value (in vivo) was roughly 242. The “number of human genes up-regulated” value (in vivo) was “about 186”, the “Fold change ACKR3” value (vs si-NT-TTs, CELL MEMBRANE) was −2.2 fold and the “Fold change BAMBI” value (vs si-NT-TTs, CELL MEMBRANE) was 1.7 fold. The “Fold change C5AR1 (CD88)” value (vs si-NT-TTs, CELL MEMBRANE) was −1.7 fold, the “Fold change CDH3” value (vs si-NT-TTs, CELL MEMBRANE) was 1.7 fold and the “Fold change CLDN4” value (vs si-NT-TTs, CELL MEMBRANE) was 2.4 fold. For the same substance, the “Fold change CLMP” value (vs si-NT-TTs, CELL MEMBRANE) was −1.7 fold, the “Fold change CNTNAP2” value (vs si-NT-TTs, CELL MEMBRANE) was −1.8 fold and the “Fold change DSC2” value (vs si-NT-TTs, CELL MEMBRANE) was 1.6 fold. For the same substance, the “Fold change EMP1” value (vs si-NT-TTs, CELL MEMBRANE) was 1.8 fold, the “Fold change ITGA1 (CD49a)” value (vs si-NT-TTs, CELL MEMBRANE) was −1.9 fold and the “Fold change TNS1” value (vs si-NT-TTs, CELL MEMBRANE) was −1.6 fold. For the same substance, the “Fold change ABCC6” value [1] was −2.3 fold, the “Fold change AGR3” value [1] was 4.1 fold and the “Fold change AHCYL2” value [1] was −1.7 fold. The “Fold change BACE1” value [1] was −1.5 fold, the “Fold change CEMIP” value [1] was −3.6 fold and the “Fold change CHERP” value [1] was −1.7 fold. The “Fold change CLGN” value [1] was −1.9 fold, the “Fold change COX10-AS1” value [1] was −2.1 fold and the “Fold change CYP26B1” value [1] was −1.8 fold. For the same substance, the “Fold change FAM20A” value [1] was −4.4 fold, the “Fold change FOXRED2” value [1] was −1.5 fold and the “Fold change ITPR1” value [1] was −1.7 fold. For the same substance, the “Fold change NCK2” value [1] was 2.0 fold, the “Fold change P4HA3” value [1] was −1.9 fold and the “Fold change PCSK5” value [1] was −2.3 fold. For the same substance, the “Fold change PPAP2B” value [1] was −1.8 fold, the “Fold change PTGS2 (COX-2)” value [1] was −1.8 fold and the “Fold change RIC3” value [1] was −2.7 fold. For the same substance, the “Fold change RYR1” value [1] was 2.5 fold, the “Fold change SEC61G” value [1] was 1.8 fold and the “Fold change TM4SF20” value [1] was −1.7 fold. For the same substance, the “Fold change TMEM147-AS” value [1] was −1.7 fold, the “Fold change UGT1A7” value [1] was −3.5 fold and the “Fold change UGT1A9” value [1] was −17.2 fold. The “Fold change ACAD10” value [2] was −1.7 fold, the “Fold change H6PD (GDH)” value [2] was −1.6 fold and the “Fold change KLK6” value [3] was 25.83 fold. The “Fold change SGK1” value [3] was −1.7 fold, the “Fold change CD9 (TSPAN29)” value (vs si-NT-TTs, EXOSOMES) was 1.5 fold and the “Fold change CD63 (TSPAN30)” value (vs si-NT-TTs, EXOSOMES) was 3.5 fold. The “Fold change CD274 (PD-L1)” value (vs si-NT-TTs, EXOSOMES) was −1.9 fold, the “Fold change CEACAM5 (CD66e)” value (vs si-NT-TTs, EXOSOMES) was 2.2 fold and the “Fold change EPCAM” value (vs si-NT-TTs, EXOSOMES) was 2.7 fold. For the same substance, the “Fold change FSTL1” value (vs si-NT-TTs, EXOSOMES) was −1.8 fold, the “Fold change GAS6” value (vs si-NT-TTs, EXOSOMES) was −1.7 fold and the “Fold change GP1BA” value (vs si-NT-TTs, EXOSOMES) was −1.7 fold. The “Fold change HSPG2 (Perlecan)” value (vs si-NT-TTs, EXOSOMES) was −1.7 fold, the “Fold change IGFBP7” value (vs si-NT-TTs, EXOSOMES) was −1.8 fold and the “Fold change NID2” value (vs si-NT-TTs, EXOSOMES) was −2.1 fold. The “Fold change RAB17” value (vs si-NT-TTs, EXOSOMES) was 1.9 fold, the “Fold change TSPAN8” value (vs si-NT-TTs, EXOSOMES) was 1.6 fold and the “Fold change TSPAN13” value (vs si-NT-TTs, EXOSOMES) was 1.8 fold. For the same substance, the “Fold change VAMP8” value (vs si-NT-TTs, EXOSOMES) was 1.9 fold, the “Fold change CANT1” value (vs si-NT-TTs, EXOSOMES / METABOLISM RELATED ENZYMES) was 1.5 fold and the “Fold change ABI3BP (TARSH)” value [4] was −2.4 fold. For the same substance, the “Fold change ADAMTS9” value [4] was −2.2 fold, the “Fold change BMP2” value [4] was −1.8 fold and the “Fold change BMPER” value [4] was −1.7 fold. For the same substance, the “Fold change CCBE1” value [4] was −2.7 fold, the “Fold change COL4A1” value [4] was −2.2 fold and the “Fold change COL4A2” value [4] was −1.8 fold. For the same substance, the “Fold change COL5A1” value [4] was −1.5 fold, the “Fold change COL12A1” value [4] was −1.5 fold and the “Fold change COL17A1 (BP180)” value [4] was 2.1 fold. For the same substance, the “Fold change EDIL3 (Del1)” value [4] was −2.5 fold.
